Experiments:
[1] = target: T1, human serotonin 5-HT2A receptor (Homo sapiens, UniProt P28223); experiment: Radioligand binding ([3H]-ketanserin) to membranes of HEK-293 EBNA cells expressing human 5-HT2A receptor; conditions: 1.1 nM [3H]-ketanserin, HEK-293 EBNA membranes, 1 h at RT
T1 construct: expressed in transfected cells; host or cells: HEK-293 EBNA cells, transient transfection; membrane preparation
Procedure, shortened: (§1)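 Membranes from HEK-293 EBNA cells transiently transfected with the receptor were incubated 1 h at RT with ten test concentrations (10 μM–0.1 nM) and ~0.7 nM [3H]-spiperone (D2), 0.5 nM [3H]-spiperone (D3) or 1.1 nM [3H]-ketanserin (5-HT2A). Nonspecific binding was set with 10 μM spiperone, bound radioactivity was read by filtration and scintillation, and Ki was taken from IC50 via Cheng-Prusoff.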

[2] = target: T2, human dopamine D3 receptor (Homo sapiens, UniProt P35462); experiment: Radioligand binding ([3H]-spiperone) to membranes of HEK-293 EBNA cells expressing human D3 receptor; conditions: human D3, 0.5 nM [3H]-spiperone, HEK-293 EBNA membranes, 1 h at RT
T2 construct: expressed in transfected cells; host or cells: HEK-293 EBNA cells, transient transfection; membrane preparation
T2 sequence (P35462 whole entry): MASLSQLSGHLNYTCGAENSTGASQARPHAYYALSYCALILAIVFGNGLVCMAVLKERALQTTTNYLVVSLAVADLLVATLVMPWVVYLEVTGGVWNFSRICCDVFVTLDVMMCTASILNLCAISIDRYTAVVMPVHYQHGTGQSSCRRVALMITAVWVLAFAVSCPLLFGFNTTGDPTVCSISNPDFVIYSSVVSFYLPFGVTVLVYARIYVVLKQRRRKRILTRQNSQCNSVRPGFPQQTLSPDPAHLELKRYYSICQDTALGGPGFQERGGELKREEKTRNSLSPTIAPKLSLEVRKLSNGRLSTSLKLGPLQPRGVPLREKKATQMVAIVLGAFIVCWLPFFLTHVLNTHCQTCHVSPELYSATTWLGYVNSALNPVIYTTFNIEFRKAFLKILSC
Procedure, shortened: as §1

[3] = target: T3, human dopamine D2 receptor (Homo sapiens, UniProt P14416); experiment: Radioligand binding ([3H]-spiperone) to membranes of HEK-293 EBNA cells expressing human D2 receptor; conditions: human D2, 0.7 nM [3H]-spiperone, HEK-293 EBNA membranes, 1 h at RT
T3 construct: expressed in transfected cells; host or cells: HEK-293 EBNA cells, transient transfection; membrane preparation
T3 sequence (P14416 whole entry): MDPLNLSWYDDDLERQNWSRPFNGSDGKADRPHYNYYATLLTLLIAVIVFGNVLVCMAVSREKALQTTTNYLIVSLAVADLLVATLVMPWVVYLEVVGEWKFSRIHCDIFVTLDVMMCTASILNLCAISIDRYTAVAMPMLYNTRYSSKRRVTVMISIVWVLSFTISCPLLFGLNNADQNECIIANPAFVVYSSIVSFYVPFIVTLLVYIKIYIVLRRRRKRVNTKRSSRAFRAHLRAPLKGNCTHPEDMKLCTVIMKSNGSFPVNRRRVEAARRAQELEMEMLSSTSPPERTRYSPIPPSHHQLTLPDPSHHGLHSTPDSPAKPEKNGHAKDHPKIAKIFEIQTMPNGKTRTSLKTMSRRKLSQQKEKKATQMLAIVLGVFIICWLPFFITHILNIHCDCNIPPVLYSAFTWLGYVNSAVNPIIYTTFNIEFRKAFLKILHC
Procedure, shortened: as §1

T1 sequence (P28223 whole entry): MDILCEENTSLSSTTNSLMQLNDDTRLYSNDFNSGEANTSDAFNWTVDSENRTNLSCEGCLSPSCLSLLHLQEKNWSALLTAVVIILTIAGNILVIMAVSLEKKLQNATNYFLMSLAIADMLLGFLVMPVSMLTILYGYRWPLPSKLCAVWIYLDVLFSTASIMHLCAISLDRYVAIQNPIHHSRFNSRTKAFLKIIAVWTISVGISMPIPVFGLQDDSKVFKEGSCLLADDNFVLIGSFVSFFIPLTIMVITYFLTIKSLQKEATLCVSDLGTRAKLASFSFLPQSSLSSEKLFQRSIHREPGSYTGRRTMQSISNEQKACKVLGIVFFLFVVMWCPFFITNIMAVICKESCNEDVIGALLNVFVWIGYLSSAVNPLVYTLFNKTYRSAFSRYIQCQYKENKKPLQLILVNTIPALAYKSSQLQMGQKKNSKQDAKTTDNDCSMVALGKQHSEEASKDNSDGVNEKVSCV

SMILES	Ki [1]	Ki [2]	Ki [3]
O=C(N[C@H]1CC[C@H](CCN2CCN(c3noc4cc(F)c(Cl)cc34)CC2)CC1)C1CCC1 [Example 92, Cyclobutanecarboxylic acid N-trans-(4-{2-[4-(5-chloro-6-fluoro-benzo[d]isoxazol-3-yl)-piperazin-1-yl]-ethyl}-cyclohexyl)-amide]	0.0116 µM	0.0124 µM	4.07 µM
COCCC(=O)N[C@H]1CC[C@H](CCN2CCN(c3noc4cc(Cl)c(Cl)cc34)CC2)CC1 [Example 94, N-trans-(4-{2-[4-(5,6-Dichloro-benzo[d]isoxazol-3-yl)-piperazin-1-yl]-ethyl}-cyclohexyl)-3-methoxy-propionamide]	0.0263 µM	0.00223 µM	1.97 µM
O=C(N[C@H]1CC[C@H](CCN2CCN(c3noc4cc(Cl)c(Cl)cc34)CC2)CC1)C1CCOCC1 [Example 95, Tetrahydro-pyran-4-carboxylic acid N-trans-(4-{2-[4-(5,6-dichloro-benzo[d]isoxazol-3-yl)-piperazin-1-yl]-ethyl}-cyclohexyl)-amide]	0.0499 µM	0.117 µM	7.95 µM
O=C(CC1CCOCC1)N[C@H]1CC[C@H](CCN2CCN(c3noc4cc(Cl)c(Cl)cc34)CC2)CC1 [Example 97, N-trans-(4-{2-[4-(5,6-Dichloro-benzo[d]isoxazol-3-yl)-piperazin-1-yl]-ethyl}-cyclohexyl)-2-(tetrahydro-pyran-4-yl)-acetamide]	0.0307 µM	0.00945 µM	11.6 µM
COCCC(=O)N[C@H]1CC[C@H](CCN2CCN(c3noc4cc(C)ccc34)CC2)CC1 [Example 98, 3-Methoxy-N-trans-(4-{2-[4-(6-methyl-benzo[d]isoxazol-3-yl)-piperazin-1-yl]-ethyl}-cyclohexyl)-propionamide]	0.00521 µM	0.00742 µM	0.222 µM
CCC(=O)N[C@H]1CC[C@H](CCN2CCN(c3noc4cc(C)ccc34)CC2)CC1 [Example 99, N-trans-(4-{2-[4-(6-Methyl-benzo[d]isoxazol-3-yl)-piperazin-1-yl]-ethyl}-cyclohexyl)-propionamide]	0.00592 µM	0.0058 µM	0.207 µM
Cc1ccc2c(N3CCN(CC[C@H]4CC[C@H](NC(=O)CC5COCCO5)CC4)CC3)noc2c1 (stereo partly drawn) [Example 102, 2-[1,4]Dioxan-2-yl-N-trans-(4-{2-[4-(6-methyl-benzo[d]isoxazol-3-yl)-piperazin-1-yl]-ethyl}-cyclohexyl)-acetamide]	0.00265 µM	0.0139 µM	0.333 µM
Cc1ccc2c(N3CCN(CC[C@H]4CC[C@H](NC(=O)CS(C)(=O)=O)CC4)CC3)noc2c1 [Example 105, 2-Methanesulfonyl-N-trans-(4-{2-[4-(6-methyl-benzo[d]isoxazol-3-yl)-piperazin-1-yl]-ethyl}-cyclohexyl)-acetamide]	0.004 µM	0.005 µM	0.17 µM
CC(=O)N[C@H]1CC[C@H](CCN2CCN(c3noc4cc(F)c(C)cc34)CC2)CC1 [Example 106, N-trans-(4-{2-[4-(6-Fluoro-5-methyl-benzo[d]isoxazol-3-yl)-piperazin-1-yl]-ethyl}-cyclohexyl)-acetamide]	0.0319 µM	0.00904 µM	2.38 µM
COCC(=O)N[C@H]1CC[C@H](CCN2CCN(c3noc4cc(F)c(C)cc34)CC2)CC1 [Example 107, N-trans-(4-{2-[4-(6-Fluoro-5-methyl-benzo[d]isoxazol-3-yl)-piperazin-1-yl]-ethyl}-cyclohexyl)-2-methoxy-acetamide]	0.0112 µM	0.02 µM	0.674 µM
Cc1cc2c(N3CCN(CC[C@H]4CC[C@H](NC(=O)CC5CC5)CC4)CC3)noc2cc1F [Example 109, 2-Cyclopropyl-N-trans-(4-{2-[4-(6-fluoro-5-methyl-benzo[d]isoxazol-3-yl)-piperazin-1-yl]-ethyl}-cyclohexyl)-acetamide]	0.0326 µM	0.0145 µM	10 µM
Cc1cc2c(N3CCN(CC[C@H]4CC[C@H](NC(=O)CC5OCCCO5)CC4)CC3)noc2cc1F [Example 111, 2-[1,3]Dioxan-2-yl-N-trans-(4-{2-[4-(6-fluoro-5-methyl-benzo[d]isoxazol-3-yl)-piperazin-1-yl]-ethyl}-cyclohexyl)-acetamide]	0.00766 µM	0.0106 µM	4.04 µM
Cc1cc2c(N3CCN(CC[C@H]4CC[C@H](NC(=O)C[C@@H]5COCCO5)CC4)CC3)noc2cc1F [Example 114, 2-(R)-[1,4]Dioxan-2-yl-N-trans-(4-{2-[4-(6-fluoro-5-methyl-benzo[d]isoxazol-3-yl)-piperazin-1-yl]-ethyl}-cyclohexyl)-acetamide]	0.017 µM	0.031 µM	> 9.7 µM

Further compounds by falling Ki [1], results first:

Ki [1]	Ki [2]	Ki [3]	SMILES
0.0514 µM	0.0354 µM	11.6 µM	CO[C@H]1CC[C@H](CC(=O)N[C@H]2CC[C@H](CCN3CCN(c4noc5cc(Cl)c(Cl)cc45)CC3)CC2)CC1 [Example 96, N-trans-(4-{2-[4-(5,6-Dichloro-benzo[d]isoxazol-3-yl)-piperazin-1-yl]-ethyl}-cyclohexyl)-2-trans-(4-methoxy-cyclohexyl)-acetamide]
0.033 µM	0.02 µM	3.28 µM	Cc1cc2c(N3CCN(CC[C@H]4CC[C@H](NC(=O)C[C@H](O)C(F)(F)F)CC4)CC3)noc2cc1F [Example 116, (S)-4,4,4-Trifluoro-N-trans-(4-{2-[4-(6-fluoro-5-methyl-benzo[d]isoxazol-3-yl)-piperazin-1-yl]-ethyl}-cyclohexyl)-3-hydroxy-butyramide]
0.021 µM	0.022 µM	1.07 µM	Cc1cc2c(N3CCN(CC[C@H]4CC[C@H](NC(=O)CC5CCCO5)CC4)CC3)noc2cc1F (stereo partly drawn) [Example 118, N-trans-(4-{2-[4-(6-Fluoro-5-methyl-benzo[d]isoxazol-3-yl)-piperazin-1-yl]-ethyl}-cyclohexyl)-2-(tetrahydro-furan-2-yl)-acetamide]
0.0209 µM	0.00259 µM	0.554 µM	COCCC(=O)N[C@H]1CC[C@H](CCN2CCN(c3noc4ccc(C)cc34)CC2)CC1 [Example 104, 3-Methoxy-N-trans-(4-{2-[4-(5-methyl-benzo[d]isoxazol-3-yl)-piperazin-1-yl]-ethyl}-cyclohexyl)-propionamide]
0.0189 µM	0.008 µM	0.297 µM	COCCC(=O)N[C@H]1CC[C@H](CCN2CCN(c3noc4cc(F)c(C)cc34)CC2)CC1 [Example 108, N-trans-(4-{2-[4-(6-Fluoro-5-methyl-benzo[d]isoxazol-3-yl)-piperazin-1-yl]-ethyl}-cyclohexyl)-3-methoxy-propionamide]
0.014 µM	0.025 µM	> 10.5 µM	Cc1cc2c(N3CCN(CC[C@H]4CC[C@H](NC(=O)CC5COCCO5)CC4)CC3)noc2cc1F (stereo partly drawn) [Example 113, 2-[1,4]Dioxan-2-yl-N-trans-(4-{2-[4-(6-fluoro-5-methyl-benzo[d]isoxazol-3-yl)-piperazin-1-yl]-ethyl}-cyclohexyl)-acetamide]
0.0101 µM	0.0316 µM	1.55 µM	CCOCC(=O)N[C@H]1CC[C@H](CCN2CCN(c3noc4cc(F)c(C)cc34)CC2)CC1 [Example 110, 2-Ethoxy-N-trans-(4-{2-[4-(6-fluoro-5-methyl-benzo[d]isoxazol-3-yl)-piperazin-1-yl]-ethyl}-cyclohexyl)-acetamide]
0.01 µM	0.038 µM	> 9.7 µM	Cc1cc2c(N3CCN(CC[C@H]4CC[C@H](NC(=O)C[C@H]5COCCO5)CC4)CC3)noc2cc1F [Example 115, 2-(S)-[1,4]Dioxan-2-yl-N-trans-(4-{2-[4-(6-fluoro-5-methyl-benzo[d]isoxazol-3-yl)-piperazin-1-yl]-ethyl}-cyclohexyl)-acetamide]
0.008 µM	0.033 µM	> 2 µM	Cc1cc2c(N3CCN(CC[C@H]4CC[C@H](NC(=O)CC5CCCCO5)CC4)CC3)noc2cc1F (stereo partly drawn) [Example 117, N-trans-(4-{2-[4-(6-Fluoro-5-methyl-benzo[d]isoxazol-3-yl)-piperazin-1-yl]-ethyl}-cyclohexyl)-2-(tetrahydro-pyran-2-yl)-acetamide]
0.0053 µM	0.0177 µM	0.494 µM	CO[C@H]1CC[C@H](CC(=O)N[C@H]2CC[C@H](CCN3CCN(c4noc5cc(C)ccc45)CC3)CC2)CC1 [Example 100, 2-trans-(4-Methoxy-cyclohexyl)-N-trans-(4-{2-[4-(6-methyl-benzo[d]isoxazol-3-yl)-piperazin-1-yl]-ethyl}-cyclohexyl)-acetamide]
0.00515 µM	0.00833 µM	0.384 µM	Cc1ccc2c(N3CCN(CC[C@H]4CC[C@H](NC(=O)CC5OCCCO5)CC4)CC3)noc2c1 [Example 101, 2-[1,3]Dioxan-2-yl-N-trans-(4-{2-[4-(6-methyl-benzo[d]isoxazol-3-yl)-piperazin-1-yl]-ethyl}-cyclohexyl)-acetamide]
0.00351 µM	0.00433 µM	0.119 µM	O=C(CC1CCOCC1)N[C@H]1CC[C@H](CCN2CCN(c3noc4cc(F)ccc34)CC2)CC1 [Example 112, N-trans-(4-{2-[4-(6-Fluoro-benzo[d]isoxazol-3-yl)-piperazin-1-yl]-ethyl}-cyclohexyl)-2-(tetrahydro-pyran-4-yl)-acetamide]
0.0023 µM	0.00696 µM	0.206 µM	COC(CC(=O)N[C@H]1CC[C@H](CCN2CCN(c3noc4cc(C)ccc34)CC2)CC1)OC [Example 103, 3,3-Dimethoxy-N-trans-(4-{2-[4-(6-methyl-benzo[d]isoxazol-3-yl)-piperazin-1-yl]-ethyl}-cyclohexyl)-propionamide]

Reference: US7858630B2, “D3 and 5-HT2A receptor modulators” (Hoffmann-La Roche Inc., priority 2008, dated 2010)
